Structures can show the parent of a compound that is named as a salt.
Experiments:
[1] = target: T1, H3R (Homo sapiens, UniProt Q9Y5N1); test: competitive inhibition SPA binding assay, H3R; conditions: selectivity panel
T1 construct: expressed in transfected cells; host or cells: HEK293 (clone H3R8)
Description: The inventive compounds can readily be evaluated by using a competitive inhibition Scintillation Proximity Assay (SPA) based on a H3R binding assay using [3H] a methylhistamine as ligand. Stable cell lines, including but not limited to HEK can be transfected with cDNA coding for H3R to prepare membranes used for the binding assay. The technique is illustrated below (Preparation of Histamine Receptor Subtype Membranes) for the histamine receptor subtypes.
(§1) cDNA for the human histamine 3 receptor was cloned and expressed as described in (Preparation of Histamine Receptor Subtye Membranes: A), above. Transfected cells were selected using G418 (500 μ/ml), grown, and tested for histamine binding by the SPA described above. For total binding, cells were assayed in a SPA reaction described above containing 50 mM Tris-HCL (assay buffer), pH 7.6, 1 mg wheat germ agglutinin SPA beads (Amersham Pharmacia Biotech, #RPNQ0001), and 1nM […]-n-alpha-methylhistamine (NEN, NET1027) (total volume per well=200μl). Thioperimide was added to determine non-specific binding. Several clones were selected as positive for binding, and a single clone (H3R8) was used to prepare membranes for binding studies described above. Five micrograms of protein was used per well in the SPA receptor-binding assay. […]

[2] = target: T2, H1R (Homo sapiens, UniProt P35367); test: competitive SPA binding assay, H1R; conditions: selectivity panel
T2 construct: expressed in transfected cells; host or cells: HEK293 (clone HIR40), vector pcDNA3.1(+)
T2 sequence (P35367 whole entry): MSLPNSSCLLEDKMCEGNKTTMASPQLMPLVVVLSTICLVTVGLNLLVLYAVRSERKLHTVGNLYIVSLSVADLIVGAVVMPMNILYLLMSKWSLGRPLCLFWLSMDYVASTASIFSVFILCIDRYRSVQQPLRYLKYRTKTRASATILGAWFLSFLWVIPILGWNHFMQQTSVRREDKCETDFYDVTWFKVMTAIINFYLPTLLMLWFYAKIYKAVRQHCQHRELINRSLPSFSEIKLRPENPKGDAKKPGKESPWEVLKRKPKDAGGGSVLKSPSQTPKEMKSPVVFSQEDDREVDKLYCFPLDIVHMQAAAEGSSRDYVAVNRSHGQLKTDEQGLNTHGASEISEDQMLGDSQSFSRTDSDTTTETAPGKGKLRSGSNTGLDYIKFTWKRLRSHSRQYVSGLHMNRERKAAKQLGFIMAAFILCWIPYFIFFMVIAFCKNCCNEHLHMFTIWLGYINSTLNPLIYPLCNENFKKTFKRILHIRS
Description: cDNA for the human histamine 1 receptor (H1R) was cloned into a mammalian expression vector containing the CMV promoter (pcDNA3.1(+), Invitogen) and transfected into HEK293 cells using the FuGENE Tranfection Reagent (Roche Diagnostics Corporation). Transfected cells were selected using G418 (500 μ/ml). Colonies that survived selection were grown and tested for histamine binding to cells grown in 96-well dishes using a scintillation proximity assay (SPA) based radioligand binding assay. Briefly, cells, representing individual selected clones, were grown as confluent monolayers in 96-well dishes (Costar Clear Bottom Plates, #3632) by seeding wells with 25,000 cells and growing for 48 hours (37° C., 5% CO2). Growth media was removed and wells were rinsed two times with PBS (minus Ca^2+ or Mg^2+). For total binding, cells were assayed in a SPA reaction containing 50 mM Tris-HCL (assay buffer), pH 7.6, 1 mg wheat germ agglutinin SPA beads (Amersham Pharmacia Biotech, #RPNQ0001), and 0.8 nM ^3H-pyrilamine (Net-594, NEN) (total volume per well=[…]). Astemizole (10 μM, Sigma #A6424) was added to appropriate wells to determine non-specific binding. Plates were covered with FasCal and incubated at room temperature for 120 minutes. […] Plates were counted in a Wallac Trilux 1450 Microbeta scintillation counter. […]

[3] = target: T3, H4R (Homo sapiens, UniProt Q9H3N8); test: competitive binding assay, GPRv53 (H4R); conditions: for Ki: competitive binding, selectivity panel; for inhibition of binding to H4R: in contrast to H3R
T3 construct: expressed in transfected cells; host or cells: HEK293 (HEK293 GPRv53 50 cells)
Description: cDNA for the human GPRv53 receptor was cloned and expressed as described in (Preparation of Histamine Receptor Subtype Membranes: A), above. Transfected cells were selected, tested for histamine binding, and selected. HEK293 GPRv53 50 cells were grown to confluency in DMEM/F12 (Gibco) supplemented with 5% FBS and 500 ug/ml G418 and washed with Delbecco's PBS (Gibco) and harvested by scraping. Whole cells were homogenized with a Polytron tissuemizer in binding buffer, 50 mM Tris pH 7.5. Cell lysates, 50 ug, were incubated in 96 well dishes with 3 nM (3H) Histamine and compounds in binding buffer for 2 hours at room temperature. Lysates were filtered through glass fiber filters (Perlin Elmer) with a Tomtec cell harverster. Filters were counted with melt-on scintillator sheets (Perlin Elmer) in a Wallac Trilux 1450 Microbeta Scintillation counter for 5 minutes.
(§2) To investigate the selectivity of the antagonists for the histamine receptors, a competitive binding assay described above was performed. […] Until the present invention, most known H3R antagonists also bound H4R.

[4] = target: T4, H2R (Homo sapiens, UniProt P25021); test: competitive SPA binding assay, H2R; conditions: selectivity panel
T4 construct: expressed in transfected cells; host or cells: HEK 293 (clone H2R10)
T4 sequence (P25021 whole entry): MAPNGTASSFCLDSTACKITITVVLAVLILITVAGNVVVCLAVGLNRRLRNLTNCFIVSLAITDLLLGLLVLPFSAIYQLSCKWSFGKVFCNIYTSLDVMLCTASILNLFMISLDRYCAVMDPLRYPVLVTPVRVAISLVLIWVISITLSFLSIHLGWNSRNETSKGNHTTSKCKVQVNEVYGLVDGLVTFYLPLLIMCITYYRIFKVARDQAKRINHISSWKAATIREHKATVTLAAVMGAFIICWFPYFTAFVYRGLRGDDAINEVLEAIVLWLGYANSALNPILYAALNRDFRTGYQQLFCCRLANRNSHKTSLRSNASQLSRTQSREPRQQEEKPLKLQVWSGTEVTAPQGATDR
Description: cDNA for the human histamine 2 receptor was cloned, expressed and transfected into HEK 293 cells as described above. Histamine binding to cells was assayed by SPA described above. For total binding, cells were assayed in a SPA reaction containing 50 mM Tris-HCl (assay buffer), pH 7.6, 1 mg wheat germ agglutinin SPA beads (Amersham PharmaciaBiotech, #RPNQ0001), and 6.2 nM ^3H-tiotidine (Net-688, NEN) (total volume per well=200 μl). Cimetidine (10 μM, Sigma #C4522) was added to appropriate wells to determine non-specific binding.
Several clones were selected as positive for binding, and a single clone (H2R10) was used to prepare membranes for binding studies. Five micrograms of protein was used per well in the SPA receptor-binding assay.
as §2

[5] = target: T5, H3R membranes (Homo sapiens, UniProt Q9Y5N1); test: [35S]GTPγS binding assay (antagonist activity); assay type: biochemical; conditions: inhibition of [35S]GTPγS binding to H3R membranes in presence of agonist R(-)alpha methylhistamine
T5 construct: expressed in transfected cells; host or cells: HEK293 (clone H3R8)
T5 sequence (Q9Y5N1 whole entry): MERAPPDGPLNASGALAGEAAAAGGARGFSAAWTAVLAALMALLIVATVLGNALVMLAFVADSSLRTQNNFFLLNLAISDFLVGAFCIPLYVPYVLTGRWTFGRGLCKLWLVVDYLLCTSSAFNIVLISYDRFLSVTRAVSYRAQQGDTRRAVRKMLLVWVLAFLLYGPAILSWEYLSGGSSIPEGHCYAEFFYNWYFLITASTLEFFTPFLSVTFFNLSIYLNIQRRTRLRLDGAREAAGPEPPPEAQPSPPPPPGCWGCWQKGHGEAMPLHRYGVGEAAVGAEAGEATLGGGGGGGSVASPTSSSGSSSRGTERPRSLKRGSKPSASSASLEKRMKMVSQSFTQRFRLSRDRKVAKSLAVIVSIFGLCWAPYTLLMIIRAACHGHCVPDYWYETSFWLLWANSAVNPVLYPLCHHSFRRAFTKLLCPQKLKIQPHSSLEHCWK
Description: Membranes isolated as described in (Preparation of Histamine Receptor Subtype Membranes) were used in a [35S]GTPχS functional assay. Binding of [35S]GTPχS to membranes indicates agonist activity. Compounds of the invention of Formula I were tested for their ability to inhibit binding in the presence of agonists. Alternately, the same transfected cell lines were used for a cAMP assay wherein H3R agonists inhibited forskolin-activated synthesis of cAMP. Compounds of Formula I were tested for their ability to permit forskolin-stimulated cAMP synthesis in the presence of agonist.
as §1, with “binding.” for “binding. Several clones were selected as positive for binding, and a single clone (H3R8) was used to prepare membranes for binding studies described above. Five micrograms of protein was used per well in the SPA receptor-binding assay.”
Antagonist activity of selected compounds was tested for inhibition of [35S] […] Plates were counted in Wallac Trilux 1450 Microbeta scintillation counter for 1 minute. […]

[6] = rat pharmacokinetics iv/po; assay type: in vivo, Male Sprague Dawley Rats; conditions: male, Sprague Dawley, blood; for bioavailability: 3 mg/kg iv or 10 mg/kg po, AUC 0-8 hr po/iv ratio, vehicle water; for half-life: 10 mg/kg po
Description: Non-imidazole containing histamine H3 receptor antagonists disclosed in the literature generally have very poor pharmacokinetic properties (see J. Apelt, et al, J. Med. Chem. 2002, 45, 1128-1141). […] Male Sprague Dawley Rats (n=3 per dose arm) were separately dosed with 3 mg/kg iv or 10 mg/kg po of compound examples 8 and 19 (vehicle: water; dose volume: 1 mL/kg iv, 10 ml/kg po). Approximately 0.5 mL of blood was collected in heparin collection tubes at multiple time points over an 8 or 24 hour period for examples 8 and 19 respectively, and the samples were analyzed using LC/MS/MS.

T1 sequence (Q9Y5N1 whole entry): as above

| Ki [1] [nM] | Ki [2] [nM] | Ki [3] [nM] | inhibition of binding to H4R [3] | Ki [4] [nM] | Ki [5] [nM] | bioavailability [6] [%] | half-life [6] [h] | SMILES |
| --- | --- | --- | --- | --- | --- | --- | --- | --- |
| 5.1 | 648 | ≥ 20000 | did not inhibit binding H4R | 813 | 5.1 |  |  | CC(C)(C)OC(=O)N1CCCc2cc(OCCCN3CCCCC3)ccc2C1 [Example 1, 7-(3-Piperidin-1-yl-propoxy)-1,3,4,5-tetrahydro-benzo[c]azepine-2-carboxylic acid tert-butyl ester] |
| 0.85 | 1760 | ≥ 20000 | did not inhibit binding H4R | 894 | 0.85 |  |  | c1cc2c(cc1OCCCN1CCCCC1)CCCNC2 [Example 2, 7-(3-Piperidin-1-yl-propoxy)-2,3,4,5-tetrahydro-1H-benzo[c]azepine dihydrochloride] |
|  |  |  |  |  |  | 49 | 12.2 | CN(C)CC(=O)N1CCCc2cc(OCCCN3CCCCC3)ccc2C1 [Example 8, 2-Dimethylamino-1-[7-(3-piperidin-1-yl-propoxy)-1,3,4,5-tetrahydro-benzo[c]azepin-2-yl]-ethanone] |
|  |  |  |  |  |  | 100 | 12.4 | CC(=O)N1CCc2ccc(OCCCN3CCCCC3)cc2CC1 [Example 19, 1-[7-(3-Piperidin-1-yl-propoxy)-1,2,4,5-tetrahydro-benzo[d]azepin-3-yl]-ethanone] |

— patent publication US20060089347A1, “Substituted azepines as histamine h3 receptor antagonists, preparation and therapeutic uses” (Eli Lilly and Company, priority 2002, published 2006)
